Source: ChEMBL document CHEMBL1201862, “PubChem BioAssay data set” (2004)
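Exposure lasted 48 hours, with cells grown in 96-well plates and compounds tested at five concentrations. GI50 marks 50% less growth.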 Active and inactive are the calls of the source. Rule as the data show it: active = GI50 up to about 1.1 µM and inactive = higher.

Assays:
Experiment in all cases: inhibition of tumour cell growth, NCI panel, 48 h
[1] = test system: HT-29
[2] = test system: SK-MEL-5
[3] = test system: A498
[4] = test system: UACC-257
[5] = test system: 786-0
[6] = test system: RPMI-8226
[7] = test system: SNB-78
[8] = test system: SF-268
[9] = test system: SK-MEL-28
[10] = test system: EKVX
[11] = test system: KM12
[12] = test system: SR
[13] = test system: SF-539
[14] = test system: COLO 205
[15] = test system: HL-60
[16] = test system: ACHN
[17] = test system: OVCAR-5
[18] = test system: MDA-N
[19] = test system: MDA-MB-231
[20] = test system: MDA-MB-435

Measured: GI50

CCCCCCCCCCCCCCCCCC(=O)NCC(COP(=O)(O)O)OCC (stereo not drawn)
inactive: [1] 68.7 µM | [2] > 100 µM | [3] 24.3 µM | [4] > 100 µM | [5] 30.7 µM | [6] > 100 µM | [7] 22.5 µM | [8] 22.3 µM | [9] > 100 µM | [10] 46.3 µM | [11] 25 µM | [12] > 100 µM | [13] 43.6 µM | [14] > 100 µM | [15] > 100 µM

COc1ccc(/C=C/C(=O)c2sc(Nc3ccc([N+](=O)[O-])cc3)nc2C)cc1
inactive: [2] 18.2 µM | [3] 83.8 µM | [16] 38.6 µM | [5] 48.8 µM | [6] 19.3 µM | [7] 46.2 µM | [8] 34.8 µM | [9] 40.2 µM | [10] 43.9 µM | [11] 27.4 µM | [13] 59.7 µM | [14] 45.7 µM | [17] > 100 µM | [15] 21.2 µM

C#CCN(N=O)C(=O)NCCCC(NC(C)=O)C(=O)NCc1ccccc1 (stereo not drawn)
inactive: [1] > 100 µM | [2] > 100 µM | [3] > 100 µM | [4] > 100 µM | [16] 56.2 µM | [5] > 100 µM | [6] 15.9 µM | [7] > 100 µM | [8] > 100 µM | [9] > 100 µM | [10] > 100 µM | [11] > 100 µM | [12] 6.3 µM | [13] 96.2 µM | [14] 66.4 µM | [17] > 100 µM

CN1/C(=C/C(=O)c2ccc(Cl)cc2)Nc2ccccc21
inactive: [1] 50.7 µM | [2] 25.5 µM | [4] 31.9 µM | [16] 33 µM | [5] 65.6 µM | [6] 31.8 µM | [7] > 100 µM | [8] 43.9 µM | [9] 99.1 µM | [10] 23.1 µM | [11] 42.4 µM | [12] 32.2 µM | [13] 58.7 µM | [14] 38 µM | [17] 18.9 µM | [15] 25.1 µM

OCC[N+]12CCCN1CCC2
inactive: [1] > 100 µM | [2] > 100 µM | [3] > 100 µM | [4] > 100 µM | [16] > 100 µM | [5] > 100 µM | [7] > 100 µM | [8] > 100 µM | [9] > 100 µM | [10] > 100 µM | [11] > 100 µM | [12] > 100 µM | [13] > 100 µM | [14] > 100 µM | [17] > 100 µM | [15] > 100 µM

N#C/C(=C1\SC(/N=N/c2ccc(Cl)cc2)C(=O)N1c1ccccc1)c1nc2ccccc2[nH]1 (stereo not drawn)
inactive: [1] 63.8 µM | [2] 35 µM | [3] 29.7 µM | [4] 27.3 µM | [16] 25.5 µM | [5] 13.7 µM | [7] 42.1 µM | [8] > 100 µM | [9] 36 µM | [10] 47.3 µM | [13] 32.4 µM | [14] 25.2 µM | [17] 25.6 µM | [15] 45.6 µM

O=S(=O)(O)c1ccc(/N=N/c2nc(C(F)(F)F)c(C(F)(F)F)[nH]2)cc1
inactive: [1] 77.1 µM | [2] > 100 µM | [4] 69.5 µM | [16] > 100 µM | [5] > 100 µM | [6] > 100 µM | [7] 96.2 µM | [8] 56.5 µM | [9] 19.2 µM | [10] 43.5 µM | [11] > 100 µM | [12] 21.2 µM | [13] 29.6 µM | [14] 74.8 µM | [17] 18.1 µM | [15] 32.1 µM

COc1ccc(/C(=N/NC(=O)NN)C(c2ccc(OC)cc2)C2(O)CNc3c(Cl)cc(Cl)cc32)cc1 (stereo not drawn)
inactive: [1] 89.9 µM | [2] > 100 µM | [3] > 100 µM | [4] > 100 µM | [16] > 100 µM | [5] > 100 µM | [6] 60.8 µM | [7] > 100 µM | [8] > 100 µM | [9] > 100 µM | [10] > 100 µM | [11] > 100 µM | [13] > 100 µM | [14] > 100 µM | [17] > 100 µM | [15] > 100 µM

Cc1ccc(S(=O)(=O)NC(=O)C2S(=O)(=O)OCCOS2(=O)=O)cc1
inactive: [1] > 100 µM | [2] > 100 µM | [4] > 100 µM | [5] > 100 µM | [6] > 100 µM | [7] > 100 µM | [8] > 100 µM | [9] > 100 µM | [10] > 100 µM | [11] > 100 µM | [12] > 100 µM | [13] > 100 µM | [14] > 100 µM | [15] > 100 µM

CN1S(=O)(=O)N(C)P12(N=P(CP(=NP13(N(C)S(=O)(=O)N1C)N(C)S(=O)(=O)N3C)(c1ccccc1)c1ccccc1)(c1ccccc1)c1ccccc1)N(C)S(=O)(=O)N2C
inactive: [1] > 100 µM | [2] > 100 µM | [3] > 100 µM | [4] > 100 µM | [16] > 100 µM | [5] > 100 µM | [6] > 100 µM | [7] > 100 µM | [8] > 100 µM | [9] > 100 µM | [10] > 100 µM | [11] > 100 µM | [13] > 100 µM | [14] > 100 µM | [17] > 100 µM | [15] > 100 µM

C/C=C1/CN2CCC34C5=CC(=O)C(c6cc7c(cc6OC)N(C)C6=C(C(=O)OC)CC8(CC)CCCN9CCC67C98)=CC5=NC23CCC1C4C(=O)OC (stereo not drawn)
inactive: [1] 14.2 µM | [2] 15.2 µM | [3] 16.6 µM | [4] 14 µM | [18] 14 µM | [16] 15.6 µM | [5] 12.1 µM | [6] 4.04 µM | [19] 10.2 µM | [8] 18 µM | [9] 16.8 µM | [20] 13 µM | [10] 13.8 µM | [11] 16.4 µM | [12] 2.73 µM | [13] 14.6 µM | [14] 8.61 µM | [17] 12.2 µM | [15] 1.93 µM

COc1cc(/C=C/c2ccc(OC(C)=O)cc2)cc(OC)c1OC
inactive: [1] 34.9 µM | [2] 18.6 µM | [3] 23.6 µM | [4] 33.4 µM | [16] 15.5 µM | [5] 25.4 µM | [6] 19.1 µM | [7] 35.1 µM | [8] 32 µM | [9] 41.5 µM | [10] 26.3 µM | [11] 32 µM | [13] 18.6 µM | [14] 27.8 µM | [17] 18 µM | [15] 12.4 µM
